Where no end group is shown, it is not given here. [ ]: non-standard residue; d: D form. Gla = N[C@@H](CC(C(=O)O)C(=O)O)C(=O)O
Assays:
αvβ3 integrin [1] = target: T1, αvβ3 integrin (Mus musculus, UniProt O54890+P43406); assay: Fibrinogen binding assay (FACS); type: cell-based; details: WT EC; 20 ng/ml VEGF or 1 mM MnCl2
T1 construct: endogenous in cells; host or cells: primary mouse lung endothelial cells
T1 sequence (O54890 26-787): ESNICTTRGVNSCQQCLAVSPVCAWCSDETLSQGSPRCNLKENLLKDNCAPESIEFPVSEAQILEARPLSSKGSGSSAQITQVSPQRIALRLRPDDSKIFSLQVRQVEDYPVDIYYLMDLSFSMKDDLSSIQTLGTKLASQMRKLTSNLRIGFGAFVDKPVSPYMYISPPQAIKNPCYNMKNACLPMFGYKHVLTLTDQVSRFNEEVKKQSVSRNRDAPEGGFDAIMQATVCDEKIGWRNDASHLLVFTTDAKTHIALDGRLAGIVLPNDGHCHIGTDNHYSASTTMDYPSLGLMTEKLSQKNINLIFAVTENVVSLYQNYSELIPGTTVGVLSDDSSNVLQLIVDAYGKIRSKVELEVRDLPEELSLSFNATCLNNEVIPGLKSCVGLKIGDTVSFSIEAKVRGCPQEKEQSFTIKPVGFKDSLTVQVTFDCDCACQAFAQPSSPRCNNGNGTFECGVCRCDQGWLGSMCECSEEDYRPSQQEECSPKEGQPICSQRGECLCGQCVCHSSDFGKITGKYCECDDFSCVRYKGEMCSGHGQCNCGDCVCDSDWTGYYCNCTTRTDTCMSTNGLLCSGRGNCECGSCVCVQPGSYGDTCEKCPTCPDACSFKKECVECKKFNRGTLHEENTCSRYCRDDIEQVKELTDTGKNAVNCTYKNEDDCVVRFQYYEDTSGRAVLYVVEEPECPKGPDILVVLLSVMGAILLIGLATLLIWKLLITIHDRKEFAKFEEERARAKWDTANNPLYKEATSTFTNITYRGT
T1 sequence (P43406 31-885 limits assumed): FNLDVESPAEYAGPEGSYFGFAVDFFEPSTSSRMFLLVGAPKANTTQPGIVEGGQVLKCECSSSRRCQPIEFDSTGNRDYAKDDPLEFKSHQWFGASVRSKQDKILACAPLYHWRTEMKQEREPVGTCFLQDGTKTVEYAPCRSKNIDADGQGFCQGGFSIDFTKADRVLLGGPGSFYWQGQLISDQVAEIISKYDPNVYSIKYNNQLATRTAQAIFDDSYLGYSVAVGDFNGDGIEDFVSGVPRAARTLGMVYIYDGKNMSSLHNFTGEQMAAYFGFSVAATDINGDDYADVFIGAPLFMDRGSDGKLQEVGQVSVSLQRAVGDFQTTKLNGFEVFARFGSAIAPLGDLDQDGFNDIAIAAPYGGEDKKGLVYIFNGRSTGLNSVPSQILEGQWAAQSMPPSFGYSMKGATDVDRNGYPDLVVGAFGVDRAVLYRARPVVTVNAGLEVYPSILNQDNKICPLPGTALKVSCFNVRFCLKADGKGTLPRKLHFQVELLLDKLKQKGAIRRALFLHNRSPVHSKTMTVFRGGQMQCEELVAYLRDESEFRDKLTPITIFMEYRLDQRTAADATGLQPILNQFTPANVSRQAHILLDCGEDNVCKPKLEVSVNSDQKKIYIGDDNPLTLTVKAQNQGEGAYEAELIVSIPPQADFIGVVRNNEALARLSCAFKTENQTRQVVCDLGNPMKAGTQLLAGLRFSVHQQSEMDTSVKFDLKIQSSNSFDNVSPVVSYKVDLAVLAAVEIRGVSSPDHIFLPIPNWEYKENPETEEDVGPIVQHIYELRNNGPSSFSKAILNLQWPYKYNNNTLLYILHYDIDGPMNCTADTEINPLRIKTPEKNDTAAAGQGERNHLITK
T1 sequence (P43406 887-1044 limits assumed): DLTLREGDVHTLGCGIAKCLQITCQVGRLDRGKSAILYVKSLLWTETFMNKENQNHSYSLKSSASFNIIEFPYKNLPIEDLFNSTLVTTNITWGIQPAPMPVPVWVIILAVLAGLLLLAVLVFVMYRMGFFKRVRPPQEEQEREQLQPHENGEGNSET
Experimental: (§1) To assess fibrinogen binding, semiconfluent wild type and DiYF mouse lung endothelial cells were serum starved for 4 h and further induced with 20 ng/ml VEGF-165, 20 ng/ml b-FGF or 1 mm MnC12. Fluorescein isothiocyanate (FITC)-labeled fibrinogen was added at a final concentration of 200 nM for 45 min. […] Fluorescence-activated cell sorting (FACS) was performed using a FACS Calibur (Becton Dickinson, San Jose, Calif.) and data were analyzed using CellQuest software program.

αvβ3 integrin [2] = assay: Fibrinogen binding assay (FACS); type: cell-based, mouse; details: DiYF EC; 20 ng/ml VEGF or 1 mM MnCl2
Experimental: as §1

αvβ3 integrin [3] = target: T1, αvβ3 integrin; assay: WOW-1 binding assay, mouse lung endothelial cells; type: cell-based; details: WT EC; 20 ng/ml VEGF or 1 mM MnCl2
Experimental: (§2) Wild type and DiYF mouse lung endothelial cells were serum starved for 4 h and further stimulated with 20 ng/ml VEGF-165, 20 ng/ml b-FGF or 1 mm MnC12 separately. WoW-1 Fab was added at a final concentration of […], followed by addition of Fluorescein isothiocyanate (FITC) conjugated goat anti-mouse IgG at 10 μg/ml. After 30 min cells were fixed with 3.7% formaldehyde/PBS for 15 min, washed twice with 1×PBS and FACS was performed using a FACS Calibur (Becton Dickinson, San Jose, Calif.) instrument and data were analyzed using CellQuest software program.

αvβ3 integrin [4] = assay: WOW-1 binding assay, mouse lung endothelial cells; type: cell-based; details: DiYF EC; 20 ng/ml VEGF or 1 mM MnCl2
Experimental: as §2

[5] = system: human melanoma cells (WM-164); assay: Apoptosis in melanoma cells; type: cell-based; details: 100 μM
Experimental: To the examine the effect of beta-3 integrin cytoplasmic domain inhibitory peptides on tumor progressino we treated human melanoma cells (WM-164) with either 100 μM of control peptide or with equal amount of inhibiting peptide 07-240 (HIV-TAT-(NPLXK) (SEQ ID NO: 7)), inhibiting peptide 07-241 (HIV-TAT-(NPLDK) (SEQ ID NO: 9)), inhibiting peptide 07-243 (HIV-TAT-(NITXR) (SEQ ID NO: 8)), and inhibiting peptide 07-244 (HIV-TAT-(NITDR) (SEQ ID NO: 10)), where X is γ-carboxyglutamic acid.

[6] = system: subcutaneously implanted tumors; assay: Progression of subcutaneously implanted tumors; type: in vivo, mice; details: 100 μM
Experimental: To the examine the effect of beta-3 integrin cytoplasmic domain inhibitory peptides on tumor progressino we subcutaneously implanted tumors in mice and then treated the mice with either 100 μM of control peptide or with equal amount of inhibiting peptide 1 (RR cyclic (NPLXK) (SEQ ID NO: 7), disulfide bridge cycle), inhibiting peptide 2 (RR cyclic (NITXR) (SEQ ID NO: 8), disulfide bridge cycle), inhibiting peptide 3 ([…] cyclic (NPLXK) (SEQ ID NO: 7), disulfide bridge cycle), inhibiting peptide 4 ([…] cyclic (NITXR) (SEQ ID NO: 8), disulfide bridge cycle), inhibiting peptide 5 (RR linear (NPLXK) (SEQ ID NO: 7)); and inhibiting peptide 6 (RR linear (NITXR) (SEQ ID NO: 8)), where X is γ-carboxyglutamic acid.

WT mouse aortic rings = assay: Mouse aortic ring angiogenesis; type: cell-based; details: 50 μM, in the presence of VEGF, 1 week
Experimental: Thoracic aortas from WT and DiYF mice were removed under aseptic conditions and spliced into 1 mm thick rings. Thoracic aortic rings were placed between two layers of growth factor depleted Matrigel and allowed to solidify at room temperature. Matrigels were overlaid with either with DMEM or endothelial growth medium with or without VEGF (40 ng/ml). Microvessel outgrowth was visualized by phase contrast microscopy and numbers of vessels growing from each aortic ring were counted and photographed every two days using Leica phase contrast microscope.
To examine the effect of cyclic inhibiting peptides on mouse aortic ring angiogensis, thoracic aortas from WT mice were removed under aseptic conditions and spliced into 1 mm thick rings. Thoracic aortic rings were placed between two layers of growth factor depleted Matrigel and allowed to solidify at room temperature. Matrigels were administered VEGF and 50 μM control peptides or with equal amounts of inhibiting peptide 1 (RR cyclic (NPLXK) (SEQ ID NO: 39), disulfide bridge cycle), inhibiting peptide 2 (RR cyclic (NITXR) (SEQ ID NO: 40), disulfide bridge cycle), inhibiting peptide 3 (RRRKKRKRRR cyclic (NPLXK) (SEQ ID NO: 41), disulfide bridge cycle), and inhibiting peptide 4 (RRRKKRKRRR cyclic (NITXR) (SEQ ID NO: 42), disulfide bridge cycle), where X is γ-carboxyglutamic acid. Microvessel outgrowth was visualized by phase contrast microscopy and numbers of vessels growing from each aortic ring were counted and photographed every two days using Leica phase contrast microscope after 1 week.

Compound	apoptosis in melanoma cells compared to a control [5]	tumor progression compared to a control [6]	angiogenesis of the mouse aortic rings (microvessel outgrowth) (WT mouse aortic rings)	also measured
[Cl][Mn][Cl] [MnCl2]	–	–	–	increase of fibrinogen binding (αvβ3 integrin [1]): at least 40 fold; increase of fibrinogen binding (αvβ3 integrin [2]): 17 fold; increase in WOW-1 binding (αvβ3 integrin [3]): 30 fold; increase in WOW-1 binding (αvβ3 integrin [4]): 14 fold
HIV-TAT-(NITDR) (listed as Homo sapiens) [07-244]	induced apoptosis	–	–	–
HIV-TAT-(NITXR) ({HIV‑TAT}-NIT[Gla]R; not fully specified; printed as HIV-TAT-(NITXR); listed as Homo sapiens) [07-243, X is γ-carboxyglutamic acid]	induced apoptosis	–	–	–
HIV-TAT-(NPLDK) (listed as Homo sapiens) [07-241]	induced apoptosis	–	–	–
HIV-TAT-(NPLXK) ({HIV‑TAT}-NPL[Gla]K; not fully specified; printed as HIV-TAT-(NPLXK); listed as Homo sapiens) [07-240, X is γ-carboxyglutamic acid]	induced apoptosis	–	–	–
RR cyclic (NITXR) (RRNIT[Gla]R; disulfide (positions not given here); not fully specified; printed as RR cyclic (NITXR); also: cyclic, closure not given here; listed as Homo sapiens) [inhibiting peptide 2, X is γ-carboxyglutamic acid]	–	substantially reduced tumor progression	inhibited angiogenesis	–
RR cyclic (NPLXK) (RRNPL[Gla]K; disulfide (positions not given here); also: NPLXK part cyclic via disulfide bridge, no Cys in given letters; listed as Homo sapiens) [inhibiting peptide 1, X is γ-carboxyglutamic acid]	–	substantially reduced tumor progression	inhibited angiogenesis	–
RR linear (NITXR) (RRNIT[Gla]R; listed as Homo sapiens) [inhibiting peptide 6, X is γ-carboxyglutamic acid]	–	substantially reduced tumor progression	–	–
RRRKKRKRRR cyclic (NITXR) (RRRKKRKRRRNIT[Gla]R; disulfide (positions not given here); not fully specified; also: cyclic, closure not given here; listed as Homo sapiens) [inhibiting peptide 4, X is γ-carboxyglutamic acid]	–	substantially reduced tumor progression	inhibited angiogenesis	–
RRRKKRKRRR cyclic (NPLXK) (RRRKKRKRRRNPL[Gla]K; disulfide (positions not given here); not fully specified; listed as Homo sapiens) [inhibiting peptide 3, X is γ-carboxyglutamic acid]	–	substantially reduced tumor progression	inhibited angiogenesis	–

Source: patent publication US9180164B2, “Compounds and methods of modulating angiogenesis” (THE CLEVELAND CLINIC FOUNDATION, priority 2011, dated 2015)
